Key:
Cbl-b = Cbl-b (Homo sapiens (Human), UniProt Q13191); assay: Cbl-b LCK Ub TR-FRET assay (Cbl-b Lck HTRF); type: biochemical; conditions: for IC50: Cbl-b LCK Ub TR-FRET; for fold-selectivity (Cbl-b over C-cbl): ratio C-cbl Lck HTRF IC50 / Cbl-b Lck HTRF IC50
Procedure, shortened: (§1)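 Signal is read once the detection mix has stood 20 min at ambient temperature. Curves are anchored by DMSO as maximum and by omission of LCK as minimum.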

c-Cbl = c-Cbl (Homo sapiens (Human), UniProt P22681); assay: C-Cbl LCK Ub TR-FRET assay (C-cbl Lck HTRF); type: biochemical
Sequence of c-Cbl (P22681 47-435): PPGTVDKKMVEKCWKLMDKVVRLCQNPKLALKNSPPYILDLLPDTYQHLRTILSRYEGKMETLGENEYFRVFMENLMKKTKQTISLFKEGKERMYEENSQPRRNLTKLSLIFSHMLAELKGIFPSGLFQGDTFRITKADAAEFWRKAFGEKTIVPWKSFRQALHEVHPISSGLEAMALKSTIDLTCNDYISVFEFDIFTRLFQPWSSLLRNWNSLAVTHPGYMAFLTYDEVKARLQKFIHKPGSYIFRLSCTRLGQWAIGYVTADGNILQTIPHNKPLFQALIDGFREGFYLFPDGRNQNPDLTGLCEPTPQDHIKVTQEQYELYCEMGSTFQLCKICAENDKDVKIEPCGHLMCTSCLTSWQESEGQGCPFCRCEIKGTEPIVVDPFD
Procedure, shortened: as §1

[1] = target: Human Cbl-b (residues 40-426) (Homo sapiens (Human), UniProt Q13191); assay: Cbl-b SPR assay; type: binding; conditions: for Fold of selectivity: C-cbl SPR Kd vs Cbl-b SPR Kd; for Kd: SPR, 20° C.
Sequence of Human Cbl-b (residues 40-426) (Q13191 40-426): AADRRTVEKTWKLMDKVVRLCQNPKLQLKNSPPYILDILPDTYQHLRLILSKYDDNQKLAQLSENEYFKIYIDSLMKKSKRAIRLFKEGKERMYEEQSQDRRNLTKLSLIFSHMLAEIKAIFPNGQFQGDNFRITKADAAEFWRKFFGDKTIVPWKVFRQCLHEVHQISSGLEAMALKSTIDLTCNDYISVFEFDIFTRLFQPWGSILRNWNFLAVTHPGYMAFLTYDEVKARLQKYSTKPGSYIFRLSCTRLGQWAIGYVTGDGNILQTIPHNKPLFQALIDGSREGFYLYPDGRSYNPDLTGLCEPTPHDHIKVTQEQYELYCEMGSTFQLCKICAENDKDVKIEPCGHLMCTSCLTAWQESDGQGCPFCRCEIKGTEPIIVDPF
Procedure, shortened: (§2)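 First, protein is captured to 1300-1500 RU. Then compound runs in single cycle kinetics, a blank plus 5 two-fold concentrations up to 500 nM (120 s contact, 50 μl/min, 450 s dissociation). Chaser injections (20 s, 30 μl/min) track occupancy, giving kd, which is fixed when fitting the titration.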

c-Cbl (residues 47-435) = c-Cbl (residues 47-435) (Homo sapiens (Human), UniProt P22681); assay: c-Cbl SPR assay; type: binding; conditions: 20° C.
Sequence of c-Cbl (residues 47-435) (P22681 47-435): as the sequence (P22681 47-435) above
Procedure, shortened: as §2

Sequence of Cbl-b (Q13191 40-426): as the sequence (Q13191 40-426) above

SMILES	IC50 (Cbl-b) [nM]	fold-selectivity (Cbl-b over C-cbl) (Cbl-b) [x]	IC50 (c-Cbl) [nM]	Fold of selectivity [1] [×]	Kd [1] [nM]	Kd (c-Cbl (residues 47-435)) [nM]
Cn1cnnc1C1(c2cccc(N3Cc4c(cc(CNC5(C)CCC5)cc4C(F)(F)F)C3=O)c2)CCCC1 [Compound 292, 2-(3-(1-(4-methyl-4H-1,2,4-triazol-3-yl)cyclopentyl)phenyl)-6-(((1-methylcyclobutyl)amino)methyl)-4-(trifluoromethyl)isoindolin-1-one]	9.8	2.4	23	6.3	5	31
Cn1cnnc1C1(c2cccc(N3Cc4c(cc(CNC5(C)CCC5)cc4C(F)(F)F)C3=O)c2)CC2(C1)OCCO2 [Compound 293, 2-(3-(2-(4-methyl-4H-1,2,4-triazol-3-yl)-5,8-dioxaspiro[3.4]octan-2-yl)phenyl)-6-(((1-methylcyclobutyl)amino)methyl)-4-(trifluoromethyl)isoindolin-1-one]	64	3.0	190	4.0	53	200
Cn1cnnc1[C@H](C[C@H]1COCCO1)c1cccc(N2Cc3c(cc(CNC4(C)CCC4)cc3C(F)(F)F)C2=O)c1 [Compound 294, 2-(3-((R)-2-((S)-1,4-dioxan-2-yl)-1-(4-methyl-4H-1,2,4-triazol-3-yl)ethyl)phenyl)-6-(((1-methylcyclobutyl)amino)methyl)-4-(trifluoromethyl)isoindolin-1-one]	400	1.6	660	1.3	530	720
Cn1cnnc1[C@H](C[C@@H]1COCCO1)c1cccc(N2Cc3c(cc(CNC4(C)CCC4)cc3C(F)(F)F)C2=O)c1 [Compound 297, 2-(3-((R)-2-((R)-1,4-dioxan-2-yl)-1-(4-methyl-4H-1,2,4-triazol-3-yl)ethyl)phenyl)-6-(((1-methylcyclobutyl)amino)methyl)-4-(trifluoromethyl)isoindolin-1-one]	1300	1.8	2300	2.0	2800	5800
Cn1cnnc1C1(c2cccc(N3Cc4c(cc(CNC5(C)CCC5)cc4C(F)(F)F)C3=O)c2)CCCCC1 [Compound 298, 2-(3-(1-(4-methyl-4H-1,2,4-triazol-3-yl)cyclohexyl)phenyl)-6-(((1-methylcyclobutyl)amino)methyl)-4-(trifluoromethyl)isoindolin-1-one]	660	2.3	1500	5.9	480	2600
Cn1cnnc1[C@@](C)(O)c1cccc(N2Cc3c(cc(CNC4(C)CCC4)cc3C(F)(F)F)C2=O)c1 [Compound 306, (S)-2-(3-(1-hydroxy-1-(4-methyl-4H-1,2,4-triazol-3-yl)ethyl)phenyl)-6-(((1-methylcyclobutyl)amino)methyl)-4-(trifluoromethyl)isoindolin-1-one]	140	1.6	230	2.0	140	280
CC(C)[C@](O)(c1cccc(N2Cc3c(cc(CNC4(C)CCC4)cc3C(F)(F)F)C2=O)c1)c1nncn1C [Compound 310, (S)-2-(3-(1-hydroxy-2-methyl-1-(4-methyl-4H-1,2,4-triazol-3-yl)propyl)phenyl)-6-(((1-methylcyclobutyl)amino)methyl)-4-(trifluoromethyl)isoindolin-1-one]	24	4.7	110	3.7	30	110
CC[C@H](NC1(C)CCC1)c1cc2c(c(C(F)(F)F)c1)CN(c1cccc([C@H](c3nncn3C)C3COC3)c1)C2=O [Compound 313, 2-(3-((R)-(4-methyl-4H-1,2,4-triazol-3-yl)(oxetan-3-yl)methyl)phenyl)-6-((S)-1-((1-methylcyclobutyl)amino)propyl)-4-(trifluoromethyl)isoindolin-1-one]	6.4	0.68	4.4	4.0	0.2	0.8
CC[C@@H](NC1(C)CCC1)c1cc2c(c(C(F)(F)F)c1)CN(c1cccc([C@H](c3nncn3C)C3COC3)c1)C2=O [Compound 314, 2-(3-((R)-(4-methyl-4H-1,2,4-triazol-3-yl)(oxetan-3-yl)methyl)phenyl)-6-((R)-1-((1-methylcyclobutyl)amino)propyl)-4-(trifluoromethyl)isoindolin-1-one]	11	4.5	51	5.5	5.1	28
Cn1cnnc1C1(c2cccc(N3Cc4c(cc(CNC5(C)CCC5)cc4C(F)(F)F)C3=O)c2)CSC1.O=CO [Compound 329, 2-(3-(3-(4-methyl-4H-1,2,4-triazol-3-yl)thietan-3-yl)phenyl)-6-(((1-methylcyclobutyl)amino)methyl)-4-(trifluoromethyl)isoindolin-1-one formate]	11	1.8	19	5.7	3.2	19

Further lines, results first:

IC50 (Cbl-b) [nM]	fold-selectivity (Cbl-b over C-cbl) (Cbl-b) [x]	IC50 (c-Cbl) [nM]	Fold of selectivity [1] [×]	Kd [1] [nM]	Kd (c-Cbl (residues 47-435)) [nM]	SMILES
170	6.5	1100	15	100	1500	Cn1cnnc1[C@@H](c1cccc(N2Cc3c(Cl)cc(CNC4(C)CCC4)cc3C2=O)c1)[C@H]1C[C@@H](F)C1 [Compound 317, 4-chloro-2-(3-((R)-((1s,3S)-3-fluorocylcobutyl)(4-methyl-4H-1,2,4-triazol-3-yl)methyl)phenyl)-6-(((1-methylcyclobutyl)amino)methyl)isoindolin-1-one]
5	1.4	7.1	12	0.47	5.2	CS[C@H]1C[C@](c2cccc(N3Cc4c(cc(CNC5(C)CCC5)cc4C(F)(F)F)C3=O)c2)(c2nncn2C)C1 [Compound 323, 2-(3-((1r,3r)-1-(4-methyl-4H-1,2,4-triazol-3-yl)-3-(methylthio)cyclobutyl)phenyl)-6-(((1-methylcyclobutyl)amino)methyl)-4-(trifluoromethyl)isoindolin-1-one]
4.8	1.5	7.1	10	0.57	5.7	CS[C@H]1C[C@@](c2cccc(N3Cc4c(cc(CNC5(C)CCC5)cc4C(F)(F)F)C3=O)c2)(c2nncn2C)C1 [Compound 324, 2-(3-((1s,3s)-1-(4-methyl-4H-1,2,4-triazol-3-yl)-3-(methylthio)cyclobutyl)phenyl)-6-(((1-methylcyclobutyl)amino)methyl)-4-(trifluoromethyl)isoindolin-1-one]
190	2.9	550	4.7	210	980	Cn1cnnc1C1(c2cccc(N3Cc4c(cc(C(N)=O)cc4C(F)(F)F)C3=O)c2)CCC1 [Compound 327, 2-(3-(1-(4-methyl-4H-1,2,4-triazol-3-yl)cyclobutyl)phenyl)-3-oxo-7-(trifluoromethyl)isoindoline-5-carboxamide]
100	3.8	380	4.8	67	320	Cn1cnnc1C1(c2cccc(N3Cc4c(cc(CNC5(C)CCC5)cc4C(F)(F)F)C3=O)c2)CS(=O)(=O)C1 [Compound 328, 2-(3-(3-(4-methyl-4H-1,2,4-triazol-3-yl)-1,1-dioxidothietan-3-yl)phenyl)-6-(((1-methylcyclobutyl)amino)methyl)-4-(trifluoromethyl)isoindolin-1-one]
200	1.9	390	11	110	1200	Cn1cnnc1[C@]1(c2cccc(N3Cc4c(cc(CNC5(C)CCC5)cc4C(F)(F)F)C3=O)c2)C[S@+]([O-])C1 [Compound 330, 2-(3-((1s,3s)-3-(4-methyl-4H-1,2,4-triazol-3-yl)-1-oxidothietan-3-yl)phenyl)-6-(((1-methylcyclobutyl)amino)methyl)-4-(trifluoromethyl)isoindolin-1-one]
29	3.8	110	8	15	120	Cn1cnnc1C1(c2cccc(N3Cc4c(cc(CNC5(C)CCC5)cc4C(F)(F)F)C3=O)c2)C[S+]([O-])C1 (stereo not drawn) [Compound 331, 2-(3-((1r,3r)-3-(4-methyl-4H-1,2,4-triazol-3-yl)-1-oxidothietan-3-yl)phenyl)-6-(((1-methylcyclobutyl)amino)methyl)-4-(trifluoromethyl)isoindolin-1-one]

Reference: patent US12187709B2 (Genentech, Inc., priority 2021, dated 2025)
